Series [1] can be described thus: Neurotoxicity in human SH-SY5Y cells assessed as reduction in cell viability at 200 uM measured after 48 hrs by MTT reduction assay (Rvb= 100 +/- 2.79%). It counts as cell-based. Particulars: read-out: Activity. (In general: Tetrazolium assays rely on reduction of a dye to a coloured formazan, in cell work by metabolically active cells.)
Series [2] concerns the target D(2) dopamine receptor (Homo sapiens) (UniProt P14416). The following applies: CHO, filed as positive allosteric modulator, dose 0.01 nM, time 10.0 min.
Series [3] can be described thus: Neurotoxicity in human SH-SY5Y cells assessed as reduction in cell viability at 100 uM measured after 48 hrs by MTT reduction assay (Rvb= 100 +/- 2.79%). It counts as cell-based. The following applies: read-out: Activity.
Another series relates to SH-SY5Y. As to the kind of experiment: Cytotoxicity against human differentiated SH-SY5Y cells assessed as reduction in cell viability at 100 uM measured after 48 hrs by phase contrast microscopic analysis. It counts as cell-based.

Residues, ends and D or L forms follow the SMILES beside them.

D(2) dopamine receptor (Homo sapiens), sequence (P14416 whole entry): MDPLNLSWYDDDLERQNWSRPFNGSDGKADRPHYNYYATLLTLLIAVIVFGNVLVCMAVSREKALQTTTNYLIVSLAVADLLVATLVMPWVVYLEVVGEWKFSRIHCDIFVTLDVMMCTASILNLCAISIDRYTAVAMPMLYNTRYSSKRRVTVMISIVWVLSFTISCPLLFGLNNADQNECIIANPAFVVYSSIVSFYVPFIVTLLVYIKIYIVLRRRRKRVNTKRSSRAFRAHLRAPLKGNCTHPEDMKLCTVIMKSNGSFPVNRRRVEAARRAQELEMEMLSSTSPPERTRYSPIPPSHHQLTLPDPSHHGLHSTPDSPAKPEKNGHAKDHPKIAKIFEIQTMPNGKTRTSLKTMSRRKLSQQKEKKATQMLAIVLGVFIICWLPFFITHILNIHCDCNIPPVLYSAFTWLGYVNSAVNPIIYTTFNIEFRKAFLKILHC

Regarding `CC(C)C[C@H](NC(=O)c1ccoc1)C(=O)NCC(N)=O`, the viability at 48 h, 200 µM in series [1] came to 86%. Regarding `CC(C)C[C@H](NC(=O)[C@@H]1CCCN1)C(=O)NCC(N)=O` (H-Pro-Leu-Gly-NH2), the Emax – broadly, the size of the effect at its maximum, as opposed to the concentration needed – in series [2] was found to be 93.6%.

Regarding `NCCc1ccc(O)c(O)c1` [DOPAMINE], in series [1], the viability at 48 h, 200 µM is 66.4%. The viability at 48 h, 100 µM in series [3] amounted to 96.9%. As to `NCCc1cc(O)c(O)cc1O` [OXIDOPAMINE], in series [1], the viability at 48 h, 200 µM worked out at 4.06%. For the same compound, the viability at 48 h, 100 µM in series [3] was 48.6%. Also, the Activity result in the series on SH-SY5Y is on record as “Toxic”.

Source of the values: ChEMBL document CHEMBL5029143, “Discovery of New Potent Positive Allosteric Modulators of Dopamine D2 Receptors: Insights into the Bioisosteric Replacement of Proline to 3-Furoic Acid in the Melanostatin Neuropeptide” (J Med Chem, 2021).
